# Results as given in PubChem BioAssay AID1996.
# Details: buffer; pH 7.4; 200.0 µM
row,Structure (SMILES),solubility kinetic [µg/mL]
1,O=C1NC(=Nc2ccccc2)S/C1=C\c1ccccc1,0.8
2,CC(=O)SC1CC(=O)N(c2c(C)cccc2C)C1=O (centres undefined),> 41.6
3,CCOC(=O)c1nc2c(=O)n(C)c(=O)n(C)c2n(C)c1=O,> 44.1
4,CCC1CCc2sc(C(=O)N3CCCN(C)CC3)cc2C1 (centres undefined),37.5
5,CC1(O)CCN2C(=O)CCc3cccc1c32 (centres undefined),19.3
6,COCCCNC(=S)Nc1cc2oc3ccccc3c2cc1OC,3.9
7,Cc1noc(C)c1COC(=O)/C=C/c1ccccc1Cl,6.8
8,NC(=O)NCC(c1ccccc1)C1CCCCC1 (centres undefined),33.4
9,CCOC(=O)Cc1csc(SCC(=O)N2CCN(c3ccccc3)CC2)n1,> 60.8
10,O=C1C(=O)N(C/C=C/c2ccccc2)c2ccccc21,2.3
11,CC(C)N1C(=O)CCC1C(=O)NCc1ccco1 (centres undefined),29.2
12,Cc1ccc(CNCc2ccc3c(c2)OCO3)cc1,32.5
13,COc1ccc(/C=C/C(=O)O)cc1S(=O)(=O)Nc1ccc2c(c1)OCO2,49.8
14,CC(Oc1ccc(Cl)cc1)C(=O)Nc1ccccc1N1CCOCC1 (centres undefined),10.1
15,COc1ccc2[nH]c(C(=O)N3CCc4ccccc4C3)c(C)c2c1,2.6
16,C=CCN(CC=C)S(=O)(=O)c1ccc(NC(=S)NC(=O)C2CC2)cc1,7.8
17,COc1ccc(OC)c(NC(=O)CCN2CCN(CCO)CC2)c1,45.7
18,FC(F)(F)Oc1ccc(-c2cn3cccnc3n2)cc1,8.5
19,S=c1[nH]nc(C2CCCCC2)o1,> 27.6
20,O=C(c1ccc([N+](=O)[O-])o1)N1CCN(Cc2ccccc2)CC1,9.2
21,O=C1[C@@H]2CSCN2C(=O)CN1Cc1cccc(C(F)(F)F)c1,44
22,CC1(C)CC(=O)C=C(Nc2ccc(O)c(C(=O)O)c2)C1,> 41.3
23,N#C/C(=C/c1ccco1)C(N)=S,> 26.7

row,Structure (SMILES),solubility kinetic [µg/mL]
1,CC(C)(C)c1ccc(N2C(=O)CC(c3ccccc3)C2=O)cc1 (centres undefined),< 0.7
2,CC(C)(C)NCC(O)COc1cccc2[nH]c(=O)[nH]c12.Cl (centres undefined),> 47.4
3,C=CCc1cc(/C=C2/NC(=O)N(CC(=O)OC)C2=O)cc(OC)c1O,11.9
4,CCOC(=O)C1(C)NC(c2ccco2)C2C(=O)N(CC)C(=O)C21 (centres undefined),> 48.1
5,CC(C)OC(=O)c1cc2c(=O)[nH]c(C(Cl)(Cl)Cl)nc2o1,47.6
6,O=C(O)c1nccnc1C(=O)NCc1csc2ccc(Cl)cc12,46.4
7,CCOc1ccc(CNC2CCCCCCC2)cc1OC.Cl,37.1
8,C[n+]1c(-c2ccccc2)sc2ccccc21.[O-][Cl+3]([O-])([O-])[O-],> 48.9
9,CC1CC(NC(=O)/C=C/C(=O)O)CC(C)(C)C1 (centres undefined),> 35.9
10,COc1cc(OC)c(OC)cc1CNCCNC(=O)c1ccco1,44.5
11,O=C(c1ccncc1)N1CCN(CCc2ccccc2)CC1,> 44.3
12,CCOc1ccc(N(C(=O)C2CCCO2)C2C=CS(=O)(=O)C2)cc1 (centres undefined),> 52.7
13,CCOc1ccc(N2CC(C(=O)NC3CCCC3)CC2=O)cc1 (centres undefined),> 47.5
14,Nc1c(NCCc2ccccc2)c2ccccc2oc1=O,> 42
15,NC(=O)c1cccc(C(N)=O)n1,> 24.8
16,CCc1cc2c(=O)n(CC(=O)NC3CCCCC3)cnc2s1,20.5
17,O=C(c1cc(Cl)nc2ccccc12)N1CCc2ccccc2C1,34.5
18,Cc1cc(OCCCn2ccnc2)cc(C(C)C)c1,23.3
19,CN(C)c1ccc(C2Nc3cccc4cccc(c34)N2)cc1,6.1
20,Cc1ccc(S(=O)(=O)N2CCCCC2)cc1C(=O)N1C(C)CCCC1C (centres undefined),> 56.8
21,CCOC(=O)NC(C)N1C(=O)C2C3C=CC(C3)C2C1=O (centres undefined),> 41.7
22,COc1ccc(C)cc1NC(=S)NN1CCN(C)CC1,> 44.2
23,CC(C)Cn1c(N)c(C=O)c(=O)n(C)c1=O,> 33.8

row,Structure (SMILES),solubility kinetic [µg/mL]
1,CCCn1cnc2cc(NCc3ccccc3O)ccc21,28.3
2,COc1ccc(S(=O)(=O)N(C)C)cc1NC(=O)COC(=O)C1CC1,> 53.5
3,O=C(CC1SC(N2CCCCC2)=NC1=O)Nc1ccc(C(=O)NCc2ccccc2)cc1 (centres undefined),61.3
4,Cn1nc(C(=O)OCC(=O)NCCc2ccccc2)c2ccccc2c1=O,> 54.8
5,CN1CCN(c2oc(Cc3cccc4ccccc34)nc2C#N)CC1,43.5
6,Cc1cc(C)cc(C(=O)OCC(=O)N2CCCCCC2)c1,> 43.4
7,CNCCc1ccccn1.Cl,> 31.4
8,COc1ccc(CCNC(=O)c2ccc(OCc3c(C)noc3C)c(OC)c2)cc1,2.3
9,Cc1cccc(Nc2c([N+](=O)[O-])c(=O)oc3ccccc23)c1,< 0.3
10,Cc1ccc(C)c(NC(=O)C(c2ccccc2)N2CCN(CC(=O)N3CCOCC3)CC2)c1 (centres undefined),> 67.6
11,Cl.OC(COCCC12CC3CC(CC(C3)C1)C2)CN1CCCC1 (centres undefined),42.3
12,Cc1coc2cc3oc(=O)c(CCC(=O)NCc4ccccn4)c(C)c3cc12,3.4
13,CC(=O)c1ccc(N2C(=O)C3C4C=CC(CC4)C3C2=O)cc1 (centres undefined),> 44.3
14,Cc1ccc(OCc2ccc(-c3ccccc3)cc2)c([N+](=O)[O-])n1,0.4
15,COc1ccc(CCNC(=O)CCc2cn(C)c3ccccc23)c(OC)c1,16.9
16,Cc1nn(CC(=O)NC2(C)CCS(=O)(=O)C2)c(C)c1S(=O)(=O)N(C)C (centres undefined),> 58.9
17,CCOC(=O)C1CCCN(C(=S)Nc2ccc(S(=O)(=O)N3CCOCC3)cc2)C1 (centres undefined),> 66.2
18,O=C1/C(=C/c2cccs2)SC(=S)N1C1CCS(=O)(=O)C1 (centres undefined),< 0.7
19,CCCn1c(SCC(=O)Nc2ccc(Cl)cc2)n[nH]c1=O,> 49
20,COC1=C(Nc2ccccc2OC)C(=O)c2ccccc2C1=O,17.2
21,NS(=O)(=O)c1ccc(CCNC(=O)c2ccc3ccccc3n2)cc1,10.6
22,COc1ccccc1CN1CCCC(CNC(=O)c2cccc3ccccc23)C1 (centres undefined),49.5

# Results, then the compound that gave them:
row,solubility kinetic [µg/mL],Structure (SMILES)
1,< 0.4,COc1ccc(OCCNC(=O)Nc2cc(F)c(F)cc2Cl)cc1
2,> 56.9,CCNC(=O)c1cccc(NC(=O)C2CC(=O)N(CCc3ccccc3)C2)c1 (centres undefined)
3,> 34.5,Cc1cc(F)ccc1NC(=O)c1cccnc1
4,4.9,CCc1sc(C(=O)Nc2ccc3c(c2)OCO3)cc1C
5,< 0.6,O=C1C=C(Nc2ccc(F)cc2)c2ccccc2C1=O
6,3.6,Cc1cc(C)c(C)c(S(=O)(=O)Nc2cccnc2)c1C
7,> 42.2,COc1ccccc1NC(=O)CSc1nncs1
8,< 0.2,N#Cc1ccc(NC(=O)c2cc(-c3cccs3)on2)cc1
9,19.4,COCCn1c(SCC(=O)Nc2ccc3[nH]c(=O)[nH]c3c2)nc2ccccc21
10,3.7,Cc1cccc(NC(=O)CSc2cccc3cccnc23)c1C
11,31.4,O=C(Nc1ccc(F)cc1)C(Cc1ccccc1)n1cccc1 (centres undefined)
12,0.3,COc1cccc(NC(=O)Nc2ccc3c(c2)CCC3)c1
13,30.1,Cc1cc(Br)ccc1NC(=O)CSCc1c(C)noc1C
14,2.5,CSc1ccccc1NC(=S)NCc1ccc(Cl)cc1
15,1.9,COC(=O)CSc1nc2ccc(C)cc2cc1C#N
16,38.9,CC(=O)Nc1cccc(OCCCNC(=O)c2ccc(F)cc2)c1
17,> 48.5,O=C(O)c1ccc(CNC(=O)c2ccc(C(F)(F)F)cc2)cc1
18,10.9,N#Cc1ccccc1COC(=O)c1ccc2c(c1)OCCO2
19,> 45.2,COCCNC(=O)Cn1nc(-c2ccc(C)cc2)ccc1=O
20,> 45.1,CN(Cc1nc2ccccc2s1)C(=O)c1ccc(F)cc1
21,2.3,O=C(Nc1ccc2c(c1)C(=O)OC2)c1ccc(F)cc1F
22,> 41,COC(=O)c1ccc(OC(=O)c2ccncc2)cc1O
23,< 0.7,COc1ccc2c(c1)CCC/C2=N\OC(=O)c1ccccc1F
24,34.4,Cc1ccc(C(C)NC(=O)Cc2cccs2)c(C)c1 (centres undefined)
25,19.5,CCOC(=O)CSc1ccc2ccccc2n1
26,1.1,Cc1cccc(/N=C/c2sc3ccccc3c2O)n1

row,solubility kinetic [µg/mL],Structure (SMILES)
1,3.8,COc1ccc(-c2noc(CCC(=O)Nc3cccnc3)n2)cc1
2,0.7,O=C(/C=C/c1cccc([N+](=O)[O-])c1)Nc1ccccn1
3,> 61.1,CCN(CC)S(=O)(=O)c1ccc(N2CCOCC2)c(NC(=O)c2ccco2)c1
4,2.1,O=C(Nc1ccc2c(c1)OCCO2)c1ccc(Cl)cc1
5,4.3,COc1ccc(NC(=O)CNC(=O)Cc2cccc3ccccc23)cc1
6,2.1,COc1ccccc1NS(=O)(=O)c1cc(NC(=O)c2ccc(Cl)nc2)ccc1N1CCCC1
7,> 48.4,O=C(Nc1nncs1)c1cc(-c2ccco2)nc2ccccc12
8,37.7,COc1ccc(C(C)=O)cc1CSc1ccccn1
9,6,O=C(Nc1ccccc1C(=O)Nc1ccncc1)c1ccccc1
10,42.6,Cc1sc2ccccc2[n+]1CC(=O)c1ccccc1.[Br-]
11,2,O=C(COC(=O)c1cccs1)Nc1ccccc1[N+](=O)[O-]
12,< 0.4,COc1cc2nc(NC(=O)c3ccccc3)sc(=O)c2cc1OC
13,26.1,CCOc1cccc(C(=O)NC2=NCCS2)c1
14,36.4,Cc1cccc(SCC(=O)Nc2ccc3c(c2)OCCO3)c1
15,> 52.1,Cc1cc(C)nc(/N=C(\N)Nc2cccc(OCc3ccccc3)c2)n1
16,< 0.3,O=C(Nc1nccs1)c1ccc(COc2ccccc2)o1
17,> 41.3,O=C(COC(=O)c1cnccn1)Nc1cccc(F)c1
18,9.4,Nc1nc(-c2ccccc2)c(C(=O)Nc2ccccc2)s1
19,< 0.8,COc1ccc(O)c(/C=C2/SC(=S)N(Cc3ccccc3)C2=O)c1
20,0.9,NC(=NC(=O)c1cccc(C(F)(F)F)c1)c1ccc(C(F)(F)F)cn1
21,> 46.4,CCOC(=O)c1ccc(N2C(=O)Cc3ccccc3C2=O)cc1
22,> 53.6,CCOc1ccc(NC(=O)CN(C)C(=O)c2ccncc2)cc1OCC
23,4.9,O=C(CCNC(=O)c1ccccc1Cl)Nc1nc2ccccc2[nH]1
24,11.7,CCOC(=O)c1cnc(C(F)(F)F)nc1Oc1ccccc1
25,32,COC(=O)c1c(-c2ccccc2)c[nH]c1C
